Source: patent publication US20030130298A1, “Cd45 inhibitors” (priority 1999, published 2003)

Columns and labels:
CD45 [1] = target: T1, CD45 (Homo sapiens, UniProt P08575); assay: Phosphatase assay using pNPP as substrate; format: biochemical; settings: pH 7.0
T1 construct: purchased BIOMOL (Plymouth Meeting, P.A.)
T1 sequence (P08575 599-1306 limits assumed): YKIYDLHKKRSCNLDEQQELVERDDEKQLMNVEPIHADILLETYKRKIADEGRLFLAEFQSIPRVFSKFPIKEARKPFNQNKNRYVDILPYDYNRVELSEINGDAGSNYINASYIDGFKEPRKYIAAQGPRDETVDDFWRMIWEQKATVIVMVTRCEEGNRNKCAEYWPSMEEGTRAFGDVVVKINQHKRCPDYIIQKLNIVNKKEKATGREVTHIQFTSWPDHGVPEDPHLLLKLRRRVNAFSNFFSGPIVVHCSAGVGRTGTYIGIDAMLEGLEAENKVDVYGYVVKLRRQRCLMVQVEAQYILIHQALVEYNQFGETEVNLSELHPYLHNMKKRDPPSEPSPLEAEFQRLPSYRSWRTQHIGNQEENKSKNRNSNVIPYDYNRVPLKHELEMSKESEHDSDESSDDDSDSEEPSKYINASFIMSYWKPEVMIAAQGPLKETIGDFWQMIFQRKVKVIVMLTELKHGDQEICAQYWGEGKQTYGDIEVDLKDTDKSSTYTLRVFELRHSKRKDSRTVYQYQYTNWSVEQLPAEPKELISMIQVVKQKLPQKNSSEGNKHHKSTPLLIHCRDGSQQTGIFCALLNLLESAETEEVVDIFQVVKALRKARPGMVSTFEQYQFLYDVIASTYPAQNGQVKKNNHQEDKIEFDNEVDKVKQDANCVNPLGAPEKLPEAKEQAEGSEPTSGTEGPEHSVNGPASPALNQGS
Experimental: (§1) Potent inhibitors of CD45 have been discovered. Such inhibitors are useful for the treatment of various autoimmune disorders as well as for treatment of OGR. Inhibition of the phosphatase activity of CD45 by compounds of the present invention has been shown by incubating the cytosolic portion of CD45 with the compounds and p-nitrophenyl phosphate (pNPP), a phosphatase substrate. Spectrophotometric monitoring has shown that the liberation of p-nitrophenol from the substrate by CD45 is inhibited in the presence of the compounds disclosed herein. Inhibition of the phosphatase activity of CD45 by compounds of the present invention has also been shown using a p56^lckcarboxy-terminal phosphorylated peptide as a substrate.
CD45 enzyme was obtained from BIOMOL (Plymouth Meeting, P.A.). Phosphatase activity was assayed in a buffer containing final concentrations of 25 mM imidazole at pH 7.0, 50 mM NaCl, 2.5 mM ethylenediaminetetraacetic acid (“EDTA”), 5 mM dithiothreitol (“DTT”) and 10 μg/mL bovine serum albumin (“BSA”) using pNPP as a substrate. […] Activity was measured by following the increase in absorbance at 405 nm using a SpectraMax Plus spectrophotometric plate reader (Molecular Devices, Sunnyvale, Calif.).

[2] = tested on: Peripheral blood mononuclear cells (T cells); assay: T cell proliferation assay (anti-CD3 OKT3 activated PBMC, [3H]thymidine); format: cell-based; settings: Homo sapiens; PBMC activated with OKT3 30 ng/mL; read-out: T cell prolif. IC50
Experimental: Whole blood was obtained from healthy human blood donors. Peripheral blood mononuclear cells (“PBMC”) were isolated using Lymphoprep density-gradient centrifugation (Nycomed Amersham, Oslo, Norway), washed, counted and resuspended at 2×10^6 cells/mL in RPMI 1640 medium containing glutamine, 0.1 mg/mL gentamycin and 10% heat inactivated human serum. PBMC were transferred to 96-well plates (2×10^5 cells/well) containing compound or vehicle control, with the final concentration of DMSO not to exceed 0.3%, and incubated for 1 hour before addition of the activating anti-CD3 antibody, OKT3 (30 ng/mL). After 24 hours in culture, the cells were pulsed with [^3H]thymidine (1 μCi/well) overnight and harvested the next day onto 96-well Packard GF/C filter plates using a Packard Cell Harvester (Packard Instruments, Meriden, Conn.). The filter plate was dried, the bottom of the plate sealed, 25 μL of Microscint 20 scintillation fluid added to each well, the top of the plate sealed with TopSeal-A, and the plate counted on a Packard TopCount. The data from the TopCount is transferred into Excel 5 (Microsoft, Redmond, Wash.) and formatted for EC50 determination using Prism software (GraphPad Software, San Diego, Calif.).

[3] = Cytotoxicity assay (Calcein-AM uptake); format: cell-based; settings: human, PHA-expanded T-cell lymphoblasts derived from PBMC, overnight incubation, Calcein-AM viability
Experimental: Calcein-AM (Molecular Probes, Eugene, Oreg.) uptake, as a quantitative measure of cell viability, was used to evaluate the toxic effect of compounds on T cells.
The T-cell lymphoblasts were purified by separation over Lymphoprep, plated at 2×10 ^5/well in a round bottom 96-well plate containing RPMI with compound and incubated overnight at 37° C. in an incubator containing 5% CO2. The dilution scheme and culture media were the same as those used in the T-cell proliferation assay. After the incubation period, cells were washed with Dulbecco's phosphate- buffered saline (D-PBS) and incubated with 1 μM Calcein-AM for 30-45 min in D-PBS as described in the technical sheet provided with The LIVE/DEAD Viability/Cytotoxicity Kit from Molecular Probes.

CD45 [4] = target: T1, CD45; assay: Phosphatase assay using lck 10-mer as substrate; format: biochemical; settings: lck carboxy-terminal peptide TEGQpYQPQP substrate, read-out: Ick IC50
Experimental: as §1
Phosphatase activity was assayed in 96 well plates in a buffer containing final concentrations of 25 mM HEPES at pH 7.2, 5 mM DTT and 10 μg/mL BSA, using the lck carboxy-terminal peptide TEGQpYQPQP as the substrate (Cho, H., Krishnaraj, R., Itoh, M., Kitas, E., Bannwarth, W., Saito, H., Walsh, C. T. 1993. Substrate specificities of catalytic fragments of protein tyrosine phosphatases (HPTPb, LAR, and CD45) toward the phosphotyrosylpeptide substrates and thiophosphotyrosylated peptides as inhibitors. Protein Science 2:977-984). Compounds were tested in a range from 30 to 0.01 μM in a final concentration of 5% DMSO. Enzyme was incubated with substrate, with or without compound, at room temperature for 1.5 h. At the end of the incubation period, BIOMOL “Green Reagent” (BIOMOL, Plymouth Meeting, Pa.) was added to each well, the plates incubated at room temperature for 30 min and absorbance read at 620 nm.

Row | SMILES | IC50 (CD45 [1]) | IC50 [2] | CC50 [3] | IC50 (CD45 [4]; pH 7.2, […]) | IC50 (CD45 [4]; pH 7.2, 1.5 h)
1 | O=C1C(=O)c2cccnc2-c2ccccc21 [Example 2, benzo[h]quinoline-5,6-dione] | 1000 nM | 240 nM | 2400 nM | 3100 nM | –
2 | O=C1C(=O)c2ccoc2-c2ccccc21 [Example 3, naphtho[,1,2b]furan-4,5-dione] | 1100 nM | – | 3500 nM | 4500 nM | –
3 | O=C1C(=O)c2ccsc2-c2ccccc21 [Example 4, naphtho[1,2-b]thiophene-4,5-dione] | 1500 nM | – | 3500 nM | – | > 30000 nM
4 | O=C1C(=O)c2ncccc2-c2ccccc21 [Example 1, benzo[f]quinoline-5,6-dione] | 2300 nM | 400 nM | 7000 nM | – | > 30000 nM
